Test results published in patent US10722496B2, “2-iminobiotin for use in the treatment of brain cell injury” (Neurophyxia B.V., priority 2015, dated 2020).

What was measured:
Format in all cases: cell-based, human
akt = assay: Western blotting, akt phosphorylation
Method: (§1) In vitro hypoxia was induced in the cell cultures by using our recently described system with minor modifications (Huang et al., 2013b; Weber et al., 2015; Zitta et al., 2010). Enzyme stock solutions (100×) of catalase and glucose oxidase (both from Sigma-Aldrich) were prepared in cell culture medium (DMEM/F12, 1% FCS; final concentration: 120 U/ml and 2 U/ml respectively; Sigma-Aldrich) leading to a decrease of partial pressure of oxygen (pO2) below 10 mmHg within 5 minutes. Hypoxic conditions were confirmed by using a tissue oxygen pressure monitor (LICOX® CMP Oxygen Catheter; Integra, Plainsboro, USA). After 7 hours of hypoxia, the cells were washed twice with PBS (PAA) and fresh normoxic medium supplemented with solvent (citrate buffer 1%) or 2-IB (10, 30, 50, 100 and 300 ng/mL) was added to the cells. […]
(§2) Protein extraction was performed using RIPA buffer containing 150 mM sodium chloride, 1% NP-40, 1% sodium deoxycholate, 0.1% sodium dodecyl sulfate (SDS) and 50 mM Tris-HCl buffer (pH 7.6; all from Sigma-Aldrich) or alternatively M-PER buffer (Mammalian Protein Extraction Reagent; Pierce, Ill., USA). Protein concentrations were determined with Roti®-Quant assays (Carl Roth) and samples were stored at −20° C. until use. […] Images were taken and densitometrically analyzed with the software ImageJ (v1.41o, NIH).

stat5 = assay: Western blotting, stat5 phosphorylation; settings: 30 ng/ml 2-IB
Method: as §1, §2

IMR-32 cell cultures = assay: LDH assay after hypoxia under mild hypothermia; settings: 30 ng/ml 2-IB post-hypoxic, 25 hours mild hypothermia (33.5° C.)
Method: (§3) In-vitro hypoxia was induced for 7 hours using IMR-32 cell cultures. After the hypoxic insult, cultures were subjected to 25 hours of mild hypothermia (33.5° C.) and were incubated with or without 2-IB (10, 30, 50, 100 and 300 ng/ml). Cell morphology was evaluated by brightfield microscopy and cell damage was analyzed by LDH assays. Production of reactive oxygen species (ROS) was measured using fluorometric assays. Western blotting for PARP and phosphorylated as well as unphosphorylated akt and erkl/2 was performed.

IMR-32 cells = assay: Reactive oxygen species (ROS) measurement, H2DCFDA
Method: In vitro hypoxia was induced in the cell cultures by using our recently described system with minor modifications (Huang et al., 2013b; Weber et al., 2015; Zitta et al., 2010). Enzyme stock solutions (100×) of catalase and glucose oxidase (both from Sigma-Aldrich) were prepared in cell culture medium (DMEM/F12, 1% FCS; final concentration: 120 U/ml and 2 U/ml respectively; Sigma-Aldrich) leading to a decrease of partial pressure of oxygen (pO2) below 10 mmHg within 5 minutes. Hypoxic conditions were confirmed by using a tissue oxygen pressure monitor (LICOX® CMP Oxygen Catheter; Integra, Plainsboro, USA). After 7 hours of hypoxia, the cells were washed twice with PBS (PAA) and fresh normoxic medium supplemented with solvent (citrate buffer 1%) or 2-IB (10, 30, 50, 100 and 300 ng/mL) was added to the cells. Investigations of cell damage, metabolic activity, ROS, hydrogen peroxide, nitrite/nitrate production, erkl/2, akt and stat5 phosphorylation as well as cell stress protein expression were performed with cell culture media or cell protein (FIG. 1).
For reactive oxygen species (ROS) measurements, 4×10^4 cells were seeded per well and cultured for 3 days in black walled 96-well plates (Greiner Bio-One, Frickenhausen, Germany). After hypoxia, cells were washed with pre-warmed PBS and cultured in a phenol red-free DMEM/F12 medium (Gibco®-invitrogen, NY, USA) with 1% fetal calf serum (PAA) for 17 hours, supplemented with solvent (citrate 1%) or 2-IB (10, 30, 50, 100, 300 ng/ml). Intracellular ROS were measured by adding 2′7′-dichlorodihydrofluorescein diacetate (H2DCFDA, Sigma-Aldrich) to a final concentration of 10 μM which is oxidized to fluorescent dichlorofluorescein (DCF) by intracellular ROS. DCF-loaded cells were kept in the dark at 37° C. and fluorescence was evaluated at an excitation wavelength of 485 nm and emission wavelength of 535 nm using an ELISA reader (Genios F L; Tecan, Crailsheim, Austria). Fluorescence data were acquired at time points 0 (T0) and 30 minutes (T30) and results were calculated as the increment of fluorescence (%) over time [(T30-T0)/T0×100]. Hydrogen peroxide was measured in the culture medium with a Quanti-Chrom™ Peroxide Assay Kit (Bio-Assay Systems, Hayward, USA), which utilizes the chromogenic Fe3+-xylenol orange reaction, in which a purple complex is formed when Fe2+ provided in the reagent is oxidized to Fe3+ by the hydrogen peroxide present in the sample. Briefly, 100 μl of detection reagent were added to 20 μl of culture medium and measurements were performed based on the manufacturer's protocol. Absorbance of the colorimetric samples and standards was measured at 620 nm using an ELISA reader (Tecan, Crailsheim, Germany).

PARP, akt and erkl/2 = assay: Western blotting for PARP, akt and erkl/2 under mild hypothermia; settings: post-hypoxic addition (30 ng/ml)
Method: as §3

N=C1N[C@H]2[C@H](CS[C@H]2CCCCC(=O)O)N1 [2-IB, 2-iminobiotin]
phospho akt/akt (akt; hypoxia plus 30 ng/ml 2-IB): 0.60±0.33
phospho akt/akt (akt; normoxia plus 30 ng/ml 2-IB): 0.78±0.54
phosphorylation of stat5 (stat5): did not influence
hypoxia-induced LDH release (IMR-32 cell cultures): reduced the hypoxia-induced LDH release even under hypothermia
ROS increase (T30-T0)/T0×100 (IMR-32 cells; 30 ng/ml 2-IB, hypoxia): 222.00±52.57%
ROS increase (T30-T0)/T0×100 (IMR-32 cells; 30 ng/ml 2-IB, normoxia): 118.93±20.09%
ROS increase (T30-T0)/T0×100 (IMR-32 cells; 50 ng/ml 2-IB, hypoxia): 233.38±53.94%
ROS increase (T30-T0)/T0×100 (IMR-32 cells; 50 ng/ml 2-IB, normoxia): 154.85±30.83%
ROS increase (T30-T0)/T0×100 (IMR-32 cells; 100 ng/ml 2-IB, hypoxia): 246.71±58.94%
ROS increase (T30-T0)/T0×100 (IMR-32 cells; 100 ng/ml 2-IB, normoxia): 128.84±21.94%
ROS increase (T30-T0)/T0×100 (IMR-32 cells; 300 ng/ml 2-IB, hypoxia): 311.57±79.02%
ROS increase (T30-T0)/T0×100 (IMR-32 cells; 300 ng/ml 2-IB, normoxia): 141.20±25.35%
hypoxia-induced generation of ROS, most efficient concentration (IMR-32 cells; 10-300 ng/ml tested): most efficiently attenuated with 50 ng/ml 2-IB
cleavage of PARP, akt and erkl/2 phosphorylation (PARP, akt and erkl/2): did not influence cleavage or phosphorylation of the mentioned molecules
